The text below walks through data of EP4245832B1, “DETERGENT COMPOSITIONS” (The Procter & Gamble Company, priority 2022, dated 2023).

The assay is described as follows: Laundry test followed by SPME GC/MS headspace analysis of cotton tracers. Conditions: headspace of the perfume ingredient above wet cotton tracers, Ex 1 (PQ22) versus Ex A (nil-PQ22). On the procedure:
100% cotton fabric cut into 30x30cm squares were washed in a mixed cotton/polycotton load of total 3kg in a front load washing machine (Miele 1935) at 40°C cotton short setting, with 2 rinses, using 2.67 mmol/L Ca (15 gpg) water hardness. A 55 ml dose of the respective detergent was added to a dosing cup and placed inside the washing machine. After the wash cycle was finished, the full load was tumbled (using a Miele Novotronic, type: TD7634) for about 1 hour. Table 1: Inventive detergent composition (Ex 1) and comparative laundry detergent composition (Ex A) used in the laundry test:
The load was washed and dried three consecutive times, then placed back into a washing machine After a fourth wash cycle, the wet cotton tracers were separated and packed in aluminium foil until they were ready to be analysed for headspace.
The headspace was analysed using solid […] (SPME) chromatography using the following procedure: • 1. One piece of 4x4 cm cotton tracers were transferred to 25 ml headspace vials. • 2. The fabric samples were equilibrated for 10 minutes at 65°C. • 3. The headspace above the fabrics was sampled via SPME (50/30µm DVB/Carboxen/PDMS) for 5 minutes. • 4. The SPME fiber was subsequently thermally desorbed into the GC. • 5. The analytes were analyzed by GC/MS (GC: Agilent 8890 and MS: Agilent 5977B MS) in full scan mode. The total perfume HS response and perfume headspace composition above the tested legs could be determined.
For `C=C(C)C1CC=C(C)C(=O)C1` (stereo not shown) [Laevo carvone, 2-methyl-5-(prop-1-en-2-yl)cyclohex-2-en-1-one], the “% increase Ex 1 vs Ex A” value worked out at 468%. For `CC(C=O)Cc1ccc(C(C)(C)C)cc1` (stereo not shown) [Lilial, 3-(4-(tert-butyl)phenyl)-2-methylpropanal] the value was -55%; for `CCOC(=O)C1=C(C)C=CCC1(C)C` [Ethyl safranate, ethyl 2,6,6-trimethylcyclohexa-1,3-diene-1-carboxylate], 26%. Turning to `CC(=O)/C=C/C1=C(C)CCCC1(C)C` [Ionone beta, (E)-4-(2,6,6-trimethylcyclohex-1-en-1-yl)but-3-en-2-one], the “% increase Ex 1 vs Ex A” value is reported as 18%. For `C=CC(C)(CCC=C(C)C)OC(=O)CC` (stereo not shown) [Linalyl propionate, 3,7-dimethylocta-1,6-dien-3-yl propionate], the “% increase Ex 1 vs Ex A” value is on record as -50%. Consider `CCCCCCCC=O` [Octyl Aldehyde, octanal], for which the “% increase Ex 1 vs Ex A” value is 16%. With `COC(=O)c1ccccc1O` [Methyl salicylate, methyl 2-hydroxybenzoate], the “% increase Ex 1 vs Ex A” value turned out to be 915%. Under `C=CCOC(=O)COCCC(C)C` [Allyl amyl glycolate, allyl 2-(isopentyloxy)acetate] stands 2003%; under `COc1ccc(C)cc1` [Para cresyl methyl ether, 1-methoxy-4-methylbenzene], 13731%. For “3-(3,3-dimethyl-2,3-dihydro-1H-inden-5-yl)propanal mixt. wth 3-(1,1-dimethyl-2,3-dihydro-1H-inden-5-yl)propanal [Neo Hivernal]” the value was -58%.

As to `CC1/C=C/CCCCCCCCCCC(=O)C1` (stereo not shown) [Delta muscenone, (E)-3-methylcyclopentadec-4-en-1-one], the “% increase Ex 1 vs Ex A” value is -27%. Under `COc1ccc(C=O)cc1` [Anisic aldehyde, 4-methoxybenzaldehyde] stands 854%; under `CCC(=O)OCC(C)(C)OC(C)C1CCCC(C)(C)C1` (stereo not shown) [Helvetolide, 2-(1-(3,3-dimethylcyclohexyl)ethoxy)-2-methylpropyl propionate], -50%; under `CC(=O)OCc1ccccc1` [Benzyl acetate, benzyl acetate], 1840%. Consider `CC(C)c1cccc(C(C)CC=O)c1` (stereo not shown) [Florhydral, 3-(3-isopropylphenyl)butanal], for which the “% increase Ex 1 vs Ex A” value was -60%. Take `CC(C)=CCCC(C)CC#N` (stereo not shown) [Citronellyl nitrile, 3,7-dimethyloct-6-enenitrile]: the “% increase Ex 1 vs Ex A” value is on record as 457%. Turning to `CCCC(=O)OCCC(C)C` [Isoamyl butyrate, isopentyl butyrate], the “% increase Ex 1 vs Ex A” value stood at 8685%. For `CC1=CCC2CC1C2(C)C` (stereo not drawn) [Alpha pinene, 2,6,6-trimethylbicyclo(3.1.1)hept-2-ene] the value was -33%. For the compound `CC(C)(O)CCc1ccccc1` [Phenyl ethyl dimethyl carbinol, 2-methyl-4-phenylbutan-2-ol], the “% increase Ex 1 vs Ex A” value is listed as 1106%. For `CCOC(=O)C1OC1(C)c1ccccc1` (stereo not shown) [Ethyl methyl phenyl glycidate, ethyl 3-methyl-3-phenyloxirane-2-carboxylate] the value was “inf”; for `O=C1CCCCCCCCCCCCCCO1` [Exaltolide total, oxacyclohexadecan-2-one], -33%; for `CC(C)=CCCC(C)CCO` (stereo not shown) [Citronellol, 3,7-dimethyloct-6-en-1-ol], 108%.

As to `COc1ccc2ccccc2c1` [Beta napthol methyl ether, 2-methoxynaphthalene], the “% increase Ex 1 vs Ex A” value came to 104%.

Consider `C=CC(C)(O)CCC=C(C)C` (stereo not shown) [Linalool, 3,7-dimethylocta-1,6-dien-3-ol], for which the “% increase Ex 1 vs Ex A” value is reported as 42%. On to `CC(=O)c1ccc2ccccc2c1` [Methyl Beta-napthyl ketone, 1-(naphthalen-2-yl)ethan-1-one], for which the “% increase Ex 1 vs Ex A” value was determined as 268%.
